Drawing on patent US11388901B2, “Herbicidal azines” (BASF SE, priority 2017, dated 2022), this text covers herbicidal activity for 2 molecules.

Assay type in all cases: in vivo
Holding throughout (conditions): 250 g/ha, scale 0 to 100

Experiment [1] has as its system Amaranthus retroflexus. Description: greenhouse pre-emergence herbicidal test. The source says: The seeds of the test plants were sown separately for each species. For the pre-emergence treatment, the active ingredients, which had been suspended or emulsified in water, were applied directly after sowing by means of finely distributing nozzles. The containers were irrigated gently to promote germination and growth and subsequently covered with transparent plastic hoods until the plants had rooted. This cover caused uniform germination of the test plants, unless this had been impaired by the active ingredients. […] The test period extended over 2 to 4 weeks. During this time, the plants were tended, and their response to the individual treatments was evaluated. Evaluation was carried out using a scale from 0 to 100. 100 means no emergence of the plants, or complete destruction of at least the aerial moieties, and 0 means no damage, or normal course of growth. A moderate herbicidal activity is given at values of at least 60, a good herbicidal activity is given at values of at least 70, and a very good herbicidal activity is given at values of at least 85. The plants used in the greenhouse experiments were of the following species: […]

For experiment [2], the system named is Setaria viridis. Description: greenhouse post-emergence herbicidal test. The source says:
(§1) The culture containers used were plastic flowerpots containing loamy sand with approximately 3.0% of humus as the substrate. The seeds of the test plants were sown separately for each species.
(§2) For the post-emergence treatment, the test plants were first grown to a height of 3 to 15 cm, depending on the plant habit, and only then treated with the active ingredients which had been suspended or emulsified in water. For this purpose, the test plants were either sown directly and grown in the same containers, or they were first grown separately as seedlings and transplanted into the test containers a few days prior to treatment.
(§3) Depending on the species, the plants were kept at 10-25° C. or 20-35° C., respectively.
(§4) The test period extended over 2 to 4 weeks. During this time, the plants were tended, and their response to the individual treatments was evaluated.
(§5) Evaluation was carried out using a scale from 0 to 100. 100 means no emergence of the plants, or complete destruction of at least the aerial moieties, and 0 means no damage, or normal course of growth. A moderate herbicidal activity is given at values of at least 60, a good herbicidal activity is given at values of at least 70, and a very good herbicidal activity is given at values of at least 85.
(§6) The plants used in the greenhouse experiments were of the following species: […]

Experiment [3] has as its system Apera spica-venti. Description: greenhouse pre-emergence herbicidal test.
From the text: as §1
(§7) For the pre-emergence treatment, the active ingredients, which had been suspended or emulsified in water, were applied directly after sowing by means of finely distributing nozzles.
(§8) The containers were irrigated gently to promote germination and growth and subsequently covered with transparent plastic hoods until the plants had rooted. This cover caused uniform germination of the test plants, unless this had been impaired by the active ingredients.
as §3, §4, §5, §6

Experiment [4] has as its system Setaria faberi. In words: greenhouse pre-emergence herbicidal test.
From the text: as §1, §7, §8, §3, §4, §5, §6

For experiment [5], the system named is Amaranthus retroflexus. Description: greenhouse post-emergence herbicidal test.
From the text: as §1, §2, §3, §4, §5, §6

The test system of experiment [6] is Echinocloa crus-galli. In words: greenhouse post-emergence herbicidal test.
From the text: as §1, §2, §3, §4, §5, §6

The test system of experiment [7] is Abutilon theophrasti. Description: greenhouse post-emergence herbicidal test.
From the text: as §1, §2, §3, §4, §5, §6

With `Cc1ccnc(F)c1Nc1nc(N)nc(C2(F)CCCC2)n1` [Example 54], the herbicidal activity in experiment [1] is listed as 100%; in experiment [2] it was 80%; in experiment [3] it was 98%; in experiment [4] it was 100%.

As for `CC(C)(F)c1nc(N)nc(Nc2c(F)nc(F)c(F)c2OCC(F)(F)F)n1` [Example 65], the herbicidal activity is listed as 100% in experiment [1]; 100% in experiment [5]; 95% in experiment [6]; 100% in experiment [7]; 100% in experiment [3].
